BigSolDB 2.1

COc1ccc(P(c2ccc(OC)cc2)c2ccc(OC)cc2)cc1
Details	solubility (mole fraction)
in 2-butanone, 293.16 K	0.00621
in 2-butanone, 298.17 K	0.00684
in 2-butanone, 303.18 K	0.00749
in 2-butanone, 308.14 K	0.00815
in 2-butanone, 313.16 K	0.00884
in 2-butanone, 318.17 K	0.00962
in 2-butanone, 323.16 K	0.0103
in 2-butanone, 328.17 K	0.0113
in 2-butanone, 333.16 K	0.0121
in 2-ethoxyethanol, 293.16 K	0.00522
in 2-ethoxyethanol, 298.17 K	0.00693
in 2-ethoxyethanol, 303.18 K	0.00862
in 2-ethoxyethanol, 308.14 K	0.0108
in 2-ethoxyethanol, 313.16 K	0.0136
in 2-ethoxyethanol, 318.17 K	0.0168
in 2-ethoxyethanol, 323.16 K	0.0209
in 2-ethoxyethanol, 328.17 K	0.0255
in 2-ethoxyethanol, 333.16 K	0.0311
in 2-ethoxyethanol, 338.17 K	0.0377
in 2-ethoxyethanol, 343.15 K	0.0454
in benzene, 293.16 K	0.00029
in benzene, 298.17 K	0.00037
in benzene, 303.18 K	0.00045
in benzene, 308.14 K	0.00054
in benzene, 313.16 K	0.00068
in benzene, 318.17 K	0.00082
in benzene, 323.16 K	0.00099
in cyclohexane, 299.15 K	0.00054
in cyclohexane, 304.05 K	0.00082
in cyclohexane, 308.85 K	0.00107
in cyclohexane, 313.95 K	0.00151
in cyclohexane, 318.45 K	0.00231
in cyclohexane, 323.65 K	0.00326
in cyclohexane, 328.45 K	0.00436
in cyclohexane, 332.85 K	0.00596
in cyclohexane, 337.65 K	0.00848
in diethyl ether, 293.16 K	0.00587
in diethyl ether, 296.17 K	0.00721
in diethyl ether, 299.18 K	0.00889
in diethyl ether, 301.16 K	0.0101
in diethyl ether, 303.15 K	0.0114
in ethanol, 293.16 K	0.00084
in ethanol, 298.17 K	0.00102
in ethanol, 303.18 K	0.00121
in ethanol, 308.14 K	0.00142
in ethanol, 313.16 K	0.00173
in ethanol, 318.17 K	0.00202
in ethanol, 323.16 K	0.00241
in methanol, 293.16 K	0.00022
in methanol, 298.17 K	0.00029
in methanol, 303.18 K	0.0004
in methanol, 308.14 K	0.00051
in methanol, 313.16 K	0.00066
in methanol, 318.17 K	0.00083
in methanol, 323.16 K	0.00107
in toluene, 293.16 K	0.00035
in toluene, 298.17 K	0.00042
in toluene, 303.18 K	0.00051
in toluene, 308.14 K	0.00061
in toluene, 313.16 K	0.00075
in toluene, 318.17 K	0.00089
in toluene, 323.16 K	0.00105
in toluene, 328.17 K	0.00123
in toluene, 333.15 K	0.00145

O=P(O)(CO)c1ccccc1
Details	solubility (mole fraction)
in 2-butanone, 288.15 K	0.0013
in 2-butanone, 293.16 K	0.0015
in 2-butanone, 298.17 K	0.0017
in 2-butanone, 303.18 K	0.0019
in 2-butanone, 308.14 K	0.0022
in 2-butanone, 313.16 K	0.0024
in 2-butanone, 318.17 K	0.0027
in 2-butanone, 323.16 K	0.0029
in 2-butanone, 328.17 K	0.0033
in 2-butanone, 333.16 K	0.0037
in 2-ethoxyethanol, 293.16 K	0.0461
in 2-ethoxyethanol, 298.17 K	0.0512
in 2-ethoxyethanol, 303.18 K	0.0571
in 2-ethoxyethanol, 308.14 K	0.0638
in 2-ethoxyethanol, 313.16 K	0.0709
in 2-ethoxyethanol, 318.17 K	0.0777
in 2-ethoxyethanol, 323.16 K	0.0849
in 2-ethoxyethanol, 328.16 K	0.0937
in 2-ethoxyethanol, 333.15 K	0.102
in acetone, 288.15 K	0.0013
in acetone, 293.16 K	0.0015
in acetone, 298.17 K	0.0017
in acetone, 303.18 K	0.002
in acetone, 308.14 K	0.0023
in acetone, 313.16 K	0.0026
in acetone, 318.17 K	0.003
in acetone, 323.16 K	0.0035
in benzene, 293.16 K	0.0009
in benzene, 298.17 K	0.0011
in benzene, 303.18 K	0.0013
in benzene, 308.14 K	0.0016
in benzene, 313.16 K	0.0019
in benzene, 318.17 K	0.0022
in benzene, 323.16 K	0.0027
in benzene, 328.16 K	0.0032
in benzene, 333.15 K	0.0037
in cyclohexane, 288.15 K	0.001
in cyclohexane, 293.16 K	0.0011
in cyclohexane, 298.17 K	0.0012
in cyclohexane, 303.18 K	0.0013
in cyclohexane, 308.14 K	0.0014
in cyclohexane, 313.16 K	0.0015
in cyclohexane, 318.17 K	0.0016
in cyclohexane, 323.16 K	0.0017
in cyclohexane, 328.17 K	0.0018
in cyclohexane, 333.16 K	0.0019
in dichloromethane, 293.16 K	0.00061
in dichloromethane, 296.17 K	0.00079
in dichloromethane, 301.13 K	0.00119
in dichloromethane, 303.14 K	0.00143
in dichloromethane, 305.15 K	0.00169
in diethyl ether, 293.16 K	0.00113
in diethyl ether, 296.17 K	0.00138
in diethyl ether, 301.13 K	0.00188
in diethyl ether, 303.14 K	0.00212
in diethyl ether, 305.15 K	0.00238
in toluene, 288.15 K	0.001
in toluene, 293.16 K	0.0011
in toluene, 298.17 K	0.0013
in toluene, 303.18 K	0.0015
in toluene, 308.14 K	0.0018
in toluene, 313.16 K	0.002
in toluene, 318.17 K	0.0023
in toluene, 323.16 K	0.0026
in toluene, 328.17 K	0.0029
in toluene, 333.16 K	0.0033
in water, 307.45 K	0.0099
in water, 317.46 K	0.0206
in water, 327.57 K	0.0424
in water, 338.15 K	0.0966
in water, 342.45 K	0.117
in water, 346.58 K	0.166
in water, 352.8 K	0.247
in water, 357.11 K	0.312
